Structures can show the parent of a compound that is named as a salt. Where two headings read alike, the source gives them in different places.
Molecular target: T1, recombinant human baculovirus-expressed GST-tagged FASN (Homo sapiens, UniProt P49327)
T1 construct: GST
Assay: FASN enzyme activity assay, fluorescence-based detection of CoA with CPM
Assay type: biochemical
Conditions: 5 nM FASN, 150 μM NADPH, 10 μM acetyl-CoA, 25 μM malonyl-CoA, 90 minutes incubation
Method in brief: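 CoA product reacted with thiol-reactive CPM (diluted to 50 μM in 70% ethanol), read at 390/530 nm after 30 min. Preceding reaction: 90 min, 5 nM recombinant GST-FASN, 150 μM NADPH, 10 μM acetyl-CoA, 25 μM malonyl-CoA, pH 7.5 HEPES, 0.5% DMSO. IC50s fitted by nonlinear sigmoidal regression.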

[1] = read-out: IC50 data for Compounds of Formulae I-V/V(a): Activity
[2] = read-out: IC50 data for Additional Compounds of Formulae I-V(a): Activity

T1 sequence (P49327 whole entry): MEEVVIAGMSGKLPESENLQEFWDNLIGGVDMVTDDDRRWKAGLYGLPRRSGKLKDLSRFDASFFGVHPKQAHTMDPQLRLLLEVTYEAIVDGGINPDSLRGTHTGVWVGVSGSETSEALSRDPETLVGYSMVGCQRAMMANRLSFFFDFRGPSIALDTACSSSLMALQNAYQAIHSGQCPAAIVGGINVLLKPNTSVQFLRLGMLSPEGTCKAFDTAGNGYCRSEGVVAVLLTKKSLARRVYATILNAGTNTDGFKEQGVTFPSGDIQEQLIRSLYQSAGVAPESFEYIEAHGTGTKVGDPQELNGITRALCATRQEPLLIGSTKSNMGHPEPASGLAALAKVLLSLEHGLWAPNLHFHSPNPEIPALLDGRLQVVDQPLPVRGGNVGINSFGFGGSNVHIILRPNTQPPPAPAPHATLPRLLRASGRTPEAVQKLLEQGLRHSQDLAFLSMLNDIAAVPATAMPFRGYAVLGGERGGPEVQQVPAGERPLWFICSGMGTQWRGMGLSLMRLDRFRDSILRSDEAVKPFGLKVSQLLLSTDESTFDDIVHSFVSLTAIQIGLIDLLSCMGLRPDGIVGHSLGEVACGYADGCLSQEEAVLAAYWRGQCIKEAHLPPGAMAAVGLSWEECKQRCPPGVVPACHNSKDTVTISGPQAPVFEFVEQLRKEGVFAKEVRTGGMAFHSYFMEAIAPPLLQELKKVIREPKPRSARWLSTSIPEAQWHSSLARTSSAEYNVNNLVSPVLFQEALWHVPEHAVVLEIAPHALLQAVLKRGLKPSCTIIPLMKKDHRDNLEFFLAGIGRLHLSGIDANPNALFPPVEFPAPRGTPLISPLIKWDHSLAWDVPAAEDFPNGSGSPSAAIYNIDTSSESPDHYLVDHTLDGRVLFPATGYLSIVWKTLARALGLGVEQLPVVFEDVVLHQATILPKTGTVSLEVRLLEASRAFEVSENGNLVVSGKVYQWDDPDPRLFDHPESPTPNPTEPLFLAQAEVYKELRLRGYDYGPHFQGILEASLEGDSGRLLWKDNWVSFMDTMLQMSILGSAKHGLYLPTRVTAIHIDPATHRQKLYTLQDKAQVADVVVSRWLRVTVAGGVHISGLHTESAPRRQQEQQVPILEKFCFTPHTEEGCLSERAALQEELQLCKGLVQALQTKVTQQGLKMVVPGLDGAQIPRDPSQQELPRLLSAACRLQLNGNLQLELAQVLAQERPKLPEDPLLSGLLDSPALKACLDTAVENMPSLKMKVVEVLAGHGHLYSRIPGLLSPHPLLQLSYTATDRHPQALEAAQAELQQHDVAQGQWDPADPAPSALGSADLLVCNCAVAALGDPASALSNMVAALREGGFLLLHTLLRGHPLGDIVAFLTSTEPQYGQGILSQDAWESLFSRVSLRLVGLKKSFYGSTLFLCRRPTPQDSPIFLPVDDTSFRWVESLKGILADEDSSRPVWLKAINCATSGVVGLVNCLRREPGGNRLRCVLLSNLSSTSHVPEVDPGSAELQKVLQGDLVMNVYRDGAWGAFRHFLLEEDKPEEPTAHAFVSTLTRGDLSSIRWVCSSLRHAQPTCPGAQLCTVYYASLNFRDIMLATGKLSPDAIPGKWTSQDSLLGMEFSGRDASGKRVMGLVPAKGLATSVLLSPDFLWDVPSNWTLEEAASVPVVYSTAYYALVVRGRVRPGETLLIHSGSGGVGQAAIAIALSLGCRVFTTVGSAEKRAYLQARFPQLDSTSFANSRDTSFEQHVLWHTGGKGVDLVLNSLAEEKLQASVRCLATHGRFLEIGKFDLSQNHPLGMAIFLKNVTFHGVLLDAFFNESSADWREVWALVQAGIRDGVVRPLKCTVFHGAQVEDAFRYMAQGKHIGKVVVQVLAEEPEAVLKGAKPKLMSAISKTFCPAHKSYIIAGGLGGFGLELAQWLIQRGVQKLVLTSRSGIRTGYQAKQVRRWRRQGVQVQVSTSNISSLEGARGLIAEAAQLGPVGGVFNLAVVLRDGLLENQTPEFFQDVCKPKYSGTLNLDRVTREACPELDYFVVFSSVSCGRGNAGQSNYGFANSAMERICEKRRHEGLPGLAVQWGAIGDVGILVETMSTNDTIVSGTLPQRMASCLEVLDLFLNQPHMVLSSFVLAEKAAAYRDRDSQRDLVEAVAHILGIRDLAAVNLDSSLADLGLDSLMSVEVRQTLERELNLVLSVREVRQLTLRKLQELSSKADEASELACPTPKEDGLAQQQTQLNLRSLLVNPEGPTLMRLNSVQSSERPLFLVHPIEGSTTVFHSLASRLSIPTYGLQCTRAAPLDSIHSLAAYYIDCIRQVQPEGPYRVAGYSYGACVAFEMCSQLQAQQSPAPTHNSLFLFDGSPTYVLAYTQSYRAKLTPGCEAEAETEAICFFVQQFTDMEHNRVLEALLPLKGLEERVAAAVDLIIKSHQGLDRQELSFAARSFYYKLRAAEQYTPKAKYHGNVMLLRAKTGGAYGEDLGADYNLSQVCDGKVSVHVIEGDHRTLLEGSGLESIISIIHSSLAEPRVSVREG

| SMILES | IC50 [1] | IC50 [2] |
| --- | --- | --- |
| CCC(=O)N1CCC(Oc2ccc(-c3cnc4ccc(C)cc4c3)cc2)CC1 [Example 483, 1-{4-[4-(6-Methylquinolin-3-yl)-phenoxy]-piperidin-1-yl}-propan-1-one, HCl] | 1 to 99 nM | – |
| Cc1cc(-c2ccc(OC3CCN(C(=O)C4CC4)CC3)cc2)cn2ccnc12 [Example 288, Cyclopropyl-{4-[4-(8-methylimidazo[1,2-a]pyridin-6-yl)-phenoxy]-piperidin-1-yl}-methanone] | 100 to 999 nM | – |
| CC(C)C(=O)N1CCC(Oc2ccc(-c3ccc4cccnc4c3)cn2)CC1 [Example 136, 2-Methyl-1-[4-(5-quinolin-7-yl-pyridin-2-yloxy)-piperidin-1-yl]-propan-1-one, HCl] | 1000 to 10000 nM | – |
| O=C(C1CC1)N1CCC(Oc2ccc(-c3cnc4ccccc4c3)cn2)CC1 [Example 134, Cyclopropyl-[4-(5-quinolin-3-yl-pyridin-2-yloxy)-piperidin-1-yl]-methanone, HCl] | 1000 to 10000 nM | – |
| O=C(C1CC1)N1CCC(Oc2ccc(-c3cnc4ccccc4c3)cc2Cl)CC1 [Example 193, [4-(2-Chloro-4-quinolin-3-yl-phenoxy)-piperidin-1-yl]-cyclopropyl-methanone] | 1000 to 10000 nM | – |
| CCC(=O)N1CCC(Oc2ccc(-c3cnc4ccccc4c3C)cc2)CC1 [Example 60] | 1 to 99 nM | – |
| Cc1c(-c2ccc(O[C@H]3CCN(C(=O)[C@H]4CCCO4)C[C@H]3F)cc2)ccc2cccnc12 [Example 366, {cis-3-Fluoro-4-[4-(8-methylquinolin-7-yl)-phenoxy]-piperidin-1-yl}-(R)-tetrahydrofuran-2-yl-methanone HCl] | 1 to 99 nM | – |
| Cc1cccc2cc(-c3ccc(OC4CCN(C(=O)C5CC5)CC4)cc3)cnc12 [Example 487, Cyclopropyl-{4-[4-(8-methylquinolin-3-yl)-phenoxy]-piperidin-1-yl}-methanone] | 1 to 99 nM | – |
| CCC(=O)N1CCC(Oc2ccc(-c3ccc4cccnc4c3OC)cc2F)CC1 [Example 219, 1-{4-[2-Fluoro-4-(8-methoxy-quinolin-7-yl)-phenoxy]-piperidin-1-yl}-propan-1-one] | 1 to 99 nM | – |
| Cc1c(-c2ccc(OC3CCN(C(=O)N4CCOCC4)CC3)cc2)ccc2cccnc12 [Example 99, [4-[4-(8-methyl-7-quinolyl)phenoxy]-1-piperidyl]-morpholino-methanone] | 100 to 999 nM | – |
| COCC(=O)N1CCC(Oc2ccc(-c3cnc4ccccc4c3)cc2)CC1 [Example 105] | 1 to 99 nM | – |
| CO[C@@H](C)C(=O)N1CCC(Oc2ccc(-c3cnc4ccccc4c3)cc2)CC1 [Example 109, (S)-2-Methoxy-1-[4-(4-quinolin-3-yl-phenoxy)-piperidin-1-yl]-propan-1-one, 2HCl] | 1000 to 10000 nM | – |
| Cc1c(-c2ccc(OC3CCN(C(=O)N4CCCO4)CC3)cc2)cnc2ccccc12 [Example 78, Isoxazolidin-2-yl-{4-[4-(4-methylquinolin-3-yl)-phenoxy]-piperidin-1-yl}-methanone] | 1 to 99 nM | – |
| CC(C)C(=O)N1CCC(Sc2ccc(-c3ccc4cnccc4c3)cc2)CC1 [Example 521, 1-(4-((4-(Isoquinolin-6-yl)phenyl)thio)piperidin-1-yl)-2-methylpropan-1-one HCl] | 100 to 999 nM | – |
| Cc1cc(-c2ccc(OC3CCN(C(=O)C4CC4)CC3)cc2)cc2ncccc12 [Example 347, Cyclopropyl(4-(4-(5-methylquinolin-7-yl)phenoxy)piperidin-1-yl)methanone, HCl] | 100 to 999 nM | – |
| CC(C)C(=O)N1CCC(Oc2ccc(-c3cnc4ccccc4c3)cc2)CC1 [Example 113, 2-Methyl-1-[4-(4-quinolin-3-yl-phenoxy)-piperidin-1-yl]-propan-1-one, HCl] | 100 to 999 nM | – |
| CCC(=O)N1CCC(Oc2ccc(-c3cn4ccnc4cc3C)cc2)CC1 [Example 293, 1-{4-[4-(7-Methylimidazo[1,2-a]pyridin-6-yl)-phenoxy]-piperidin-1-yl}-propan-1-one] | 1000 to 10000 nM | – |
| Cc1c(-c2ccc(OC3CCN(C(=O)C4CC4)CC3)cc2)cccc1-c1ccccn1 [Example 407, Cyclopropyl-[4-(2′-methyl-3′-pyridin-2-yl-biphenyl-4-yloxy)-piperidin-1-yl]-methanone, TFA salt] | 1000 to 10000 nM | – |
| CC(C)C(=O)N1CCC(Oc2ccc(-c3ccc4cccnc4c3)nc2)CC1 [Example 145, 2-Methyl-1-[4-(6-quinolin-7-yl-pyridin-3-yloxy)-piperidin-1-yl]-propan-1-one, 2HCl] | 1000 to 10000 nM | – |
| Cc1nccc2c(C)c(-c3ccc(OC4CCN(C(=O)C5CC5)CC4)cc3)ccc12 [Example 473, Cyclopropyl-[4-[4-(1,5-dimethyl-6-isoquinolyl)phenoxy]-1-piperidyl]methanone HCl] | 100 to 999 nM | – |

| SMILES | IC50 [1] | IC50 [2] |
| --- | --- | --- |
| CC(C)C(=O)N1CCC(Oc2ccc(-c3cnc4ccccc4c3)nc2)CC1 [Example 141, 2-Methyl-1-[4-(6-quinolin-3-yl-pyridin-3-yloxy)-piperidin-1-yl]-propan-1-one, 2HCl] | 1000 to 10000 nM | – |
| CCC(=O)N1CCC(N(C)c2ccc(-c3cnc4ccccc4c3)cc2)CC1 [Example 524, 1-{4-[Methyl-(4-quinolin-3-yl-phenyl)-amino]-piperidin-1-yl}-propan-1-one, HCl] | 100 to 999 nM | – |
| O=C([C@H]1CCCO1)N1CCC(Oc2ccc(-c3ccc4nccn4c3)cc2)CC1 [Example 318, [4-(4-Imidazo[1,2-a]pyridin-6-yl-phenoxy)-piperidin-1-yl]-(R)-tetrahydro-furan-2-yl-methanone; compound with trifluoroacetic acid] | 1 to 99 nM | – |
| CCC(=O)N1CCC(Oc2ccc(-c3cc(O)c4ccnn4c3)cc2)CC1 [Example 426, 1-{4-[4-(4-Hydroxypyrazolo[1,5-a]pyridin-6-yl)-phenoxy]-piperidin-1-yl}-propan-1-one] | 1000 to 10000 nM | – |
| Cc1c(-c2ccc(OC3CCN(C(=O)NC(C)C)CC3)cc2)ccc2nccn12 [Example 603, N-Isopropyl-4-[4-(5-methylimidazo[1,2-a]pyridin-6-yl)phenoxy]piperidine-1-carboxamide] | – | 1000 to 10000 nM |
| Cc1c(-c2ccc(OC3CCN(C(=O)N4CCCCO4)CC3)cc2)ccc2cccnc12 [Example 558, [4-[4-(8-Methyl-7-quinolyl)phenoxy]-1-piperidyl]-(oxazinan-2-yl)methanone] | – | 1000 to 10000 nM |
| Cc1c(-c2ccc(OC3CCN(C(=O)NOC(C)C)CC3)cc2)ccn2ccnc12 [Example 630, N-Isopropoxy-4-[4-(8-methylimidazo[1,2-a]pyridin-7-yl)phenoxy]piperidine-1-carboxamide, HCl] | – | 100 to 999 nM |
| Cc1ccc2ccc(-c3ccc(OC4CCN(C(=O)C5CC5)CC4)cc3)c(F)c2n1 [Example 26, Cyclopropyl-{4-[4-(8-fluoro-2-methylquinolin-7-yl)-phenoxy]-piperidin-1-yl}-methanone] | 1000 to 10000 nM | – |
| CCC(=O)N1CCC(Sc2ccc(-c3cncc4ccccc34)cc2)CC1 [Example 519, 1-(4-((4-(Isoquinolin-4-yl)phenyl)thio)piperidin-1-yl)propan-1-one, HCl] | 1000 to 10000 nM | – |
| Cc1c(-c2ccc(OC3CCN(C(=O)N4CCC(N5CCOCC5)CC4)CC3)cc2)ccc2cccnc12 [Example 534, [4-[4-(8-Methyl-7-quinolyl)phenoxy]-1-piperidyl]-(4-morpholino-1-piperidyl)methanone, HCl] | – | 1000 to 10000 nM |
| COc1c(-c2ccc(OC3CCN(C(=O)C4CC4)CC3)c(F)c2)ccc2cccnc12 [Example 220, Cyclopropyl-{4-[2-fluoro-4-(8-methoxyquinolin-7-yl)-phenoxy]-piperidin-1-yl}-methanone] | 1 to 99 nM | – |
| CCNC(=O)N1CCC(Oc2ccc(-c3ccc4cccnc4c3OC)cc2)CC1 [Example 86, 4-[4-(8-Methoxyquinolin-7-yl)-phenoxy]-piperidine-1-carboxylic acid ethylamide] | 1 to 99 nM | – |
| Cc1c(-c2ccc(OC3CCN(C(=O)C(C)(C)N)CC3)cc2)ccc2cccnc12 [Example 619, 2-Amino-2-methyl-1-[4-[4-(8-methyl-7-quinolyl)phenoxy]-1-piperidyl]propan-1-one] | – | 1000 to 10000 nM |
| CCC(=O)N1CCC(Oc2ccc(-c3cnc4c(OC)cccc4c3)cc2)CC1 [Example 57, 1-{4-[4-(8-Methoxyquinolin-3-yl)-phenoxy]-piperidin-1-yl}-propan-1-one] | 100 to 999 nM | – |
| COCCNC(=O)N1CCC(Oc2ccc(-c3ccc4cccnc4c3C)cc2)CC1 [Example 542, N-(2-Methoxyethyl)-4-[4-(8-methyl-7-quinolyl)phenoxy]piperidine-1-carboxamide HCl] | – | 1 to 99 nM |
| CONC(=O)N1CCC(Oc2ccc(-c3ccc4cccnc4c3C)cc2)CC1 [Example 91, N-methoxy-4-[4-(8-methyl-7-quinolyl)phenoxy]piperidine-1-carboxamide] | 1 to 99 nM | – |
| Cc1c(-c2ccc(OC3CCN(C(=O)C4(C(F)(F)F)CC4)CC3)cc2)ccc2cccnc12 [Example 315, {4-[4-(8-Methylquinolin-7-yl)-phenoxy]-piperidin-1-yl}-(1-trifluoro-methylcyclopropyl)-methanone] | 1000 to 10000 nM | – |
| CCC(=O)N1CCC(Oc2ccc(-c3cccc(-c4ccccn4)c3C)cc2)CC1 [Example 406, 1-[4-(2′-Methyl-3′-pyridin-2-yl-biphenyl-4-yloxy)-piperidin-1-yl]-propan-1-one; TFA salt] | 1000 to 10000 nM | – |
| O=C(c1ccon1)N1CCC(Oc2ccc(-c3cnc4ccccc4c3)cc2)CC1 [Example 124, Isoxazol-3-yl-[4-(4-quinolin-3-yl-phenoxy)-piperidin-1-yl]-methanone, HCl] | 1000 to 10000 nM | – |
| CC(C)Oc1c(-c2ccc(OC3CCN(C(=O)[C@H]4CCCO4)CC3)cc2)ccc2cccnc12 [Example 180, {4-[4-(8-Isopropoxyquinolin-7-yl)-phenoxy]-piperidin-1-yl}-(R)-tetrahydrofuran-2-yl-methanone, HCl] | 1 to 99 nM | – |

Reference: patent publication US9902696B2, “1,4-substituted piperidine derivatives” (Cephalon, Inc., priority 2015, dated 2018)
